Common to all, as to type: physicochemical
Data set [1] in a line: Photostability in solution in a chemical solvent (Suntest CPS+). The settings on record: 25 μg deposited from methanol, absorbance vs non-irradiated control, in % (unit assumed); for Photostability at 10 MED mean: Suntest irradiation 10 MED; for Photostability at 20 MED mean: Suntest irradiation 20 MED. An excerpt:
A Suntest CPS+ (Atlas, Linsengenicht/Altenhasslan, Germany) was used. The Suntest makes it possible to reproduce the solar spectrum and thus to carry out exposures inside at any time without weather constraints.
The radiance of the solar simulator was carefully measured with a spectroradiometer (MSS 2044, Bielefeld, Germany). UVB and UVA intensities were 0.49 mW/cm^2 and 6.32 mW/cm^2, respectively. The MED value defined by COLIPA is 5.6 J/cm^2 in total UV (22). The UV total (UVA+UVB) accounts for 14.8% of the energy delivered by the lamp (power 460 W/m^2). An irradiation dose equivalent to 1 MED corresponds to 37.83 J/cm^2 (in total spectrum) delivered by the lamp.
The Suntest test duration is calculated using the following formula: t=H/E with: […]
The solutions of the compounds are prepared at a concentration of 500 μg/ml in methanol. 50 μl (25 μg) of each solution are deposited in a crystallizer, then irradiated in the Suntest at 5, 10 and/or 20 MED. A non-irradiated control is prepared (deposit of 50 μl of solution and addition of 2.450 ml of methanol). The solvent evaporates during irradiation and the products are taken up in 2.5 ml of methanol. After irradiation, the absorbance of each solution is measured with the UV-visible spectrophotometer (Varian CARY 50 Scan).

Data set [2] can be described thus: Spectral characteristics: molar extinction coefficient and specific absorbance. Particulars: ethyl acetate, 10 μg/ml; for Maximum specific absorbance UVC: A1cm^1%.
Assay in data set [3]: as above
Particulars: ethyl acetate, 10 μg/ml; for Maximum specific absorbance UVA / Maximum specific absorbance UVB: A1cm^1%. An excerpt: The calculation of the molar extinction coefficient (ε) is made from the Beer-Lambert law:
[formula] Wherein: A=absorbance I0=intensity of the incident light I=intensity of the transmitted light ε=molar extinction (or molar absorbance) coefficient in M^−1 cm^−1 l=path length in cm c=concentration in mol/l
The molar extinction coefficient can be expressed with respect to a given mass of the product. It thus makes it possible to be able to compare the coefficients of extinction between products for the same given quantity. This quantity is 1% by weight. The molar extinction coefficient thus becomes the specific absorbance (A1cm^1%).
[formula] Wherein: A1cm^1%=specific absorbance ε=molar extinction coefficient M=molar mass
The spectral characteristics of the compounds in comparison with commercial filters at a concentration of 10 μg/ml are summarized in tables 2-1 and 2-2.
Procedure: The products are dissolved in ethyl acetate to a concentration of 10 μg/ml. The spectra are measured using a dual-beam spectrophotometer (Varian CARY 50 Scan) between 290 nm and 400 nm.

Data set [4] can be described thus: Spectral distribution in UVA and UVB (290-400 nm). The settings on record: range from 290 nm to 400 nm. An excerpt:
The products tested are classified according to spectral distribution in UVA and UVB in a range from 290 nm to 400 nm.
It is possible to differentiate them according to their spectral distribution:
Products with a narrow spectrum: • Products absorbing in the range between 280 nm and 320 nm (UVB) • Products absorbing in the range between 320 nm and 400 nm (UVA) Products with a broad spectrum: • Products absorbing in UVB (280-320 nm) and UVA-II […] • Products covering UVB and UVA (280-400 nm).

The nature of data set [5]: In vitro SPF in a chemical solvent (Diffey and Robson). The settings on record: ethyl acetate solution, 10 μg/ml, transmittance 290-400 nm. The protocol:
The in vitro methods of determining the protective effectiveness of sun products consist of measuring by transmission spectrophotometry the absorption spectrum of the filter in solution or of the product applied on a substrate with the aim of simulating the surface of the skin. The effectiveness against UVB and/or UVA rays, or the effect on the cutaneous response, are then determined by calculation, taking into account or not the UV radiation action spectrum for the damage considered.
The Sayre/Agin and Diffey/Robson method, used since the 1990s, involves a comparative measurement, with the aid of an integrating-sphere spectroradiometer, of the transition from 290 nm to 400 nm in 5 nm steps, the sample being subjected to UV radiation from a stable known source covering the whole of the UV spectrum (unfiltered xenon).
Diffey and Robson evaluate the erythemal response by the following calculation:
[formula] E(λ)=spectral irradiation in W(m^−2) (nm^−1) at 40° N sun at 20° zenith angle ε=erythematous capacity
The Diffey and Robson formula makes it possible to determine SPF from the measurement of transmittance between 290 nm and 400 nm. Transmittance is measured in solution in ethyl acetate at a concentration of 10 μg/ml using a UV-visible spectrophotometer (Varian CARY 50 Scan).

`CCN(CC)c1ccc(-c2nnc(O)nc2-c2ccc(N(CC)CC)cc2)cc1` [JR18, 3-hydroxy-5,6-bis(4-diethylaminophenyl)-1,2,4-triazine]: in data set [1], the “Photostability at 10 MED mean” value is on record as 82.86 and the “Photostability at 20 MED mean” value came out at 57.37.
Take `Oc1ccccc1-c1nnc(-c2ccccc2)c(-c2ccccc2)n1` [JR67, 3-(2-hydroxyphenyl)-5,6-diphenyl-1,2,4-triazine]: in data set [2], the “Maximum specific absorbance UVC” value worked out at 811, the “Maximum molar extinction coefficient UVC” value turned out to be 26300 M⁻¹ cm⁻¹, the “Wavelength of maximum molar extinction coefficient UVC” value is “at 280” and the “Wavelength of maximum specific absorbance UVC” value is “at 280”. In data set [3], the “Maximum specific absorbance UVA” value was determined as 502, the “Maximum molar extinction coefficient UVA” value stood at 16300 M⁻¹ cm⁻¹, the “Wavelength of maximum molar extinction coefficient UVA” value is “at 330” and the “Wavelength of maximum specific absorbance UVA” value is reported as “at 330”.
For the compound `Oc1ccc(-c2nnc(-c3ccccc3)c(-c3ccccc3)n2)cc1` [JR68, 3-(4-hydroxyphenyl)-5,6-diphenyl-1,2,4-triazine], in data set [2], the “Maximum specific absorbance UVC” value is reported as 702, the “Maximum molar extinction coefficient UVC” value amounted to 22800 M⁻¹ cm⁻¹, the “Wavelength of maximum molar extinction coefficient UVC” value was “at 280” and the “Wavelength of maximum specific absorbance UVC” value is recorded as “at 280”. In addition, in data set [1], the “Photostability at 10 MED mean” value stood at 98.2 and the “Photostability at 20 MED mean” value stood at 95.33. In data set [3], the “Maximum specific absorbance UVA” value was 424, the “Maximum molar extinction coefficient UVA” value is 13800 M⁻¹ cm⁻¹, the “Wavelength of maximum molar extinction coefficient UVA” value is “at 330” and the “Wavelength of maximum specific absorbance UVA” value is listed as “at 330”. The Spectral distribution entry in data set [4] was “absorb in UVB (280-320 nm) and UVA-II (280-340 nm)”.
Regarding `COc1ccc(-c2nnc(-c3ccc(OC)cc3)c(-c3ccc(OC)cc3)n2)cc1` [JR70, 3-(4-methoxyphenyl)-5,6-bis(4-methoxyphenyl)-1,2,4-triazine], in data set [1], the “Photostability at 10 MED mean” value was found to be 44.51 and the “Photostability at 20 MED mean” value is 30.83. Besides, in data set [3], the “Maximum specific absorbance UVB” value is on record as 982, the “Maximum molar extinction coefficient UVB” value worked out at 29200 M⁻¹ cm⁻¹, the “Wavelength of maximum molar extinction coefficient UVB” value is reported as “at 310” and the “Wavelength of maximum specific absorbance UVB” value was “at 310”. In addition, the Spectral distribution result in data set [4] is on record as “absorb in UVB”.
On to `COc1ccc(-c2nnc(-c3ccccc3O)nc2-c2ccc(OC)cc2)cc1` [JR89, 3-(2-hydroxyphenyl)-5,6-bis(4-methoxyphenyl)-1,2,4-triazine], for which, in data set [2], the “Maximum specific absorbance UVC” value came to 502, the “Maximum molar extinction coefficient UVC” value worked out at 19300 M⁻¹ cm⁻¹, the “Wavelength of maximum molar extinction coefficient UVC” value is given as “at 280” and the “Wavelength of maximum specific absorbance UVC” value is recorded as “at 280”. In data set [1], the “Photostability at 10 MED mean” value is 97.39 and the “Photostability at 20 MED mean” value amounted to 98.72. Besides, in data set [3], the “Maximum specific absorbance UVA” value is given as 526 at, the “Maximum molar extinction coefficient UVA” value came out at 20300 M⁻¹ cm⁻¹, the “Wavelength of maximum molar extinction coefficient UVA” value is on record as “at 335” and the “Wavelength of maximum specific absorbance UVA” value came to 335. The Spectral distribution result in data set [4] was “absorb in UVB (280-320 nm) and UVA-II (280-340 nm)”.
Regarding `COc1ccc(-c2nnc(-c3ccc(C#N)cc3)nc2-c2ccc(OC)cc2)cc1` [JR107, 3-(4-cyanophenyl)-5,6-bis(4-methoxyphenyl)-1,2,4-triazine], in data set [2], the “Maximum specific absorbance UVC” value came to 655 at, the “Maximum molar extinction coefficient UVC” value amounted to 25800 M⁻¹ cm⁻¹, the “Wavelength of maximum molar extinction coefficient UVC” value is reported as “at 270” and the “Wavelength of maximum specific absorbance UVC” value is given as 270. In addition, in data set [1], the “Photostability at 10 MED mean” value is on record as 58.45 and the “Photostability at 20 MED mean” value is recorded as 47.81. In data set [3], the “Maximum specific absorbance UVA” value is 498 at, the “Maximum specific absorbance UVB” value is on record as 688 at, the “Maximum molar extinction coefficient UVA” value amounted to 19600 M⁻¹ cm⁻¹ and the “Maximum molar extinction coefficient UVB” value was found to be 27100 at M^−1 cm^−1. For the same compound, in data set [3], the “Wavelength of maximum molar extinction coefficient UVA” value is “at 350”, the “Wavelength of maximum molar extinction coefficient UVB” value is listed as 300, the “Wavelength of maximum specific absorbance UVA” value is listed as 350 and the “Wavelength of maximum specific absorbance UVB” value stood at 300. In addition, the Spectral distribution result in data set [4] was “absorb in UVB and UVA”.
Consider `COc1ccc(-c2nnc(-c3cccc(C#N)c3)nc2-c2ccc(OC)cc2)cc1` [JR113, 3-(3-cyanophenyl)-5,6-bis(4-methoxyphenyl)-1,2,4-triazine], for which, in data set [1], the “Photostability at 10 MED mean” value is 98.07 and the “Photostability at 20 MED mean” value stood at 97.67. For the same compound, in data set [3], the “Maximum specific absorbance UVA” value came out at 570, the “Maximum specific absorbance UVB” value is recorded as 721, the “Maximum molar extinction coefficient UVA” value is 22469 M⁻¹ cm⁻¹ and the “Maximum molar extinction coefficient UVB” value was 28800 M⁻¹ cm⁻¹. For the same compound, in data set [3], the “Wavelength of maximum molar extinction coefficient UVA” value is reported as “at 340”, the “Wavelength of maximum molar extinction coefficient UVB” value is listed as “at 295”, the “Wavelength of maximum specific absorbance UVA” value is listed as “at 340” and the “Wavelength of maximum specific absorbance UVB” value was “at 295”. Further, the Spectral distribution result in data set [4] is “absorb in UVB and UVA”. This compound had an SPF in data set [5] of 67.74.
In the case of `COc1ccc(-c2nnc(-c3ccccc3C#N)nc2-c2ccc(OC)cc2)cc1` [JR114, 3-(2-cyanophenyl)-5,6-bis(4-methoxyphenyl)-1,2,4-triazine], in data set [1], the “Photostability at 10 MED mean” value is reported as 92.07 and the “Photostability at 20 MED mean” value was determined as 91.43. In addition, in data set [3], the “Maximum specific absorbance UVA” value is 661, the “Maximum molar extinction coefficient UVA” value amounted to 26000 M⁻¹ cm⁻¹, the “Wavelength of maximum molar extinction coefficient UVA” value is reported as “at 325” and the “Wavelength of maximum specific absorbance UVA” value is “at 352”. In data set [4], the Spectral distribution entry is “absorb in UVB and UVA”.
As to `COc1ccc(-c2nnc(-c3cc(O)c(O)c(O)c3)nc2-c2ccc(OC)cc2)cc1` [JR115, 3-(3,4,5-hydroxyphenyl)-5,6-bis(4-methoxyphenyl)-1,2,4-triazine], in data set [1], the “Photostability at 10 MED mean” value is 57.63 and the “Photostability at 20 MED mean” value is on record as 46.42. In addition, in data set [3], the “Maximum specific absorbance UVB” value was 747, the “Maximum molar extinction coefficient UVB” value turned out to be 34300 M⁻¹ cm⁻¹, the “Wavelength of maximum molar extinction coefficient UVB” value was “at 310” and the “Wavelength of maximum specific absorbance UVB” value is “at 310”. For the same compound, the Spectral distribution result in data set [4] is “absorb in UVB (280-320 nm) and UVA-II (280-340 nm)”.
On to `CC(C)(C)CC(C)(C)c1cc(Cc2cc(C(C)(C)CC(C)(C)C)cc(-n3nc4ccccc4n3)c2O)c(O)c(-n2nc3ccccc3n2)c1` [Tinosorb M ®, reference compound], for which, in data set [3], the “Maximum specific absorbance UVA” value is recorded as 552, the “Maximum specific absorbance UVB” value was 556, the “Maximum molar extinction coefficient UVA” value is 36400 M⁻¹ cm⁻¹ and the “Maximum molar extinction coefficient UVB” value came out at 36600 M⁻¹ cm⁻¹. In data set [3], the “Wavelength of maximum molar extinction coefficient UVA” value was “at 345”, the “Wavelength of maximum molar extinction coefficient UVB” value was “at 305”, the “Wavelength of maximum specific absorbance UVA” value is on record as “at 345” and the “Wavelength of maximum specific absorbance UVB” value is “at 305”. The Spectral distribution entry in data set [4] was “absorb in UVB and UVA”. Further, the SPF in data set [5] turned out to be 54.07.

The values are drawn from US8053573B2, “Monomer 5, 6-diphenyl-1.2.4-traizinic derivatives and the use thereof” (Pierre Fabre Dermo-Cosmetique, priority 2004, dated 2011).
